# Source: patent publication US6495594B2, “Biologically active analogs of discodermolide” (Harbor Branch Oceanographic Institution, Inc., priority 2000, dated 2002)
# pIC50: −log10 of the molar value.
# Columns and labels:
# [1] = test system: P388 murine leukemia cell lines; assay: In vitro proliferation of P388 cells (MTT); format: cell-based; conditions: for pIC50: value in parentheses
# Protocol: (§1) Discodermolide and discodermolide analogs were analyzed as to their effects on proliferation of A549 human adenocarcinoma and P388 murine leukemia cell lines. P388 cells were obtained from Dr. R. Camalier, National Cancer Institute, Bethesda, MD, and A549 cells were obtained from American Type Culture Collection, Rockville, MD. All cell lines were maintained in tissue culture medium (TCM; Roswell Park Memorial Institute RPMI 1640 supplemented with 100 U/mL penicillin, […], 60 […], 18 mM HEPES, 0.05 mg/mL gentamicin (Life Technologies, Gaithersburg, MD) and 10% fetal bovine serum) and cultured in plastic tissue culture flasks at 37° C. in humidified air containing 5% CO2. Stock cultures of P388 cells were subcultured 1:20 in fresh TCM every 2 to 3 days. Stock cultures of A549 cells were subcultured 1:10 every 3 to 4 days. To assess the antiproliferative effects of agents against the cells, 200 μL cultures (96-well tissue culture plates, Nunc, Denmark) were established at 1 ×10^5 cells/mL in TCM or TCM containing the test agent at 0.03-5.0 μg/mL. After 48-h exposures, P388 cells were enumerated using 3-[4,5-dimethylthiazol-2-yl]-2,5-diphenyltetrazolium bromide (MTT) as described in the literature (M. C. Alley, et al., Cancer Res. 48:589, 1988). A549 cells were enumerated in the same manner after 72 hours exposure. The results were expressed as percent inhibition compared to the negative (no drug) control. Positive drug controls of varying dilutions of 5-fluorouracil and adriamycin (Sigma Chemical Co., St Louis, MO) were included to monitor drug sensitivity of the cell line.
# (§2) To quantitate the effects on cell proliferation and resulting IC50 values, 75 μL of warm growth media containing 5 mg/mL MTT is added to each well, cultures returned to the incubator, and left undisturbed for 3 hours. To spectrophotometrically quantitate formation of reduced formazan, plates are centrifuged (500×g, 10 minutes), culture fluids removed by aspiration, and 200 μL of acidified isopropanol (2 mL concentrated HCl /liter isopropanol) added per well. The absorbance of the resulting solutions is measured in a plate reader (TECAN Spectra SLT; TECAN U.S., Research Triangle Park, N.C.) at 570 nm and a 650 nm reference filter. The absorbance of test wells is divided by the absorbance of drug-free wells, and the concentration of agent that results in 50% of the absorbance of untreated cultures (IC50) is determined by linear regression of logit-transformed data (D. J. Finney, Statistical Method in Biological Assay, third ed., pp. 316-348, Charles Griffin Co., London, 1978). A linear relationship between tumor cell number and formazan production has been routinely observed over the range of cell densities observed in these experiments. The two standard drug controls (indicated above) are included in each assay as a check to monitor the drug sensitivity of each of the cell lines and IC50 values are determined for each drug-cell combination.
# [2] = test system: A549 human adenocarcinoma; assay: In vitro proliferation of A549 cells (MTT); format: cell-based; conditions: for pIC50: value in parentheses
# Protocol: as §1, §2
# [3] = test system: A549 human adenocarcinoma tumor cells; assay: Microtubule bundling patterns in tumor cells by immunofluorescence; format: cell-based; set-up: key to Microtubule bundling in A549 cells: −: no effect; +/−: minimal or questionable effect; +: weak effect; ++: strong effect; +++: very strong effect equivalent to discodermolide; conditions: for Microtubule bundling in A549 cells: subjective rating versus discodermolide
# Protocol: Discodermolide and discodermolide analogs were evaluated as to their effects on the morphology of the microtubule network of cells using mouse anti-alpha-tubulin monoclonal antibody.
# On day one, 7×10^4 adherent A549 human adenocarcinoma tumor cells were cultured in TCM overnight at 37° C. in 5% CO2 on 22 mm^2 cover slips in 6-well microtiter plates. On day two, TCM was removed and replaced with 10-1000 nM discodermolide or analog in TCM or TCM without drug (control) and incubated overnight at 37° C. in 5% CO2. On day three, TCM was removed and cells attached to cover slips were fixed with a 3.7% formaldehyde solution in Dulbecco's PBS for 10 minutes at room temperature. Cells were permeabilized with a 2% Triton X-100 solution, 2 mL per well, for 5 minutes at room temperature and washed twice in Dulbecco's PBS prior to staining.
# To each well containing cells attached to cover slips a 2 mL volume of mouse anti- alpha-tubulin monoclonal antibody (Cat# T-5168, Sigma Chemical Co., St. Louis, Mo.) diluted 1:1000 in Dulbecco's phosphate buffered saline (D-PBS) was added and the cells incubated at room temperature for 45 minutes. Cover slips were rinsed once with D-PBS. A 2 mL volume of goat-anti-mouse-IgG-FITC conjugated antibody (Cat# T-5262, Sigma Chemical Co., St. Louis, Mo.) diluted 1:1000 in D-PBS was added and the cells incubated at room temperature for 45 minutes. Cover slips were rinsed once in D-PBS and DNA was stained with 0.02 mg/mL propidium iodide together with 0.1 mg/mL of ribonuclease A (RNAse) A in D-PBS at 37° C. for 30 minutes. Cover slips were rinsed three times with sterile distilled water, air-dried and mounted on slides with SlowFade™ antifade solution (Molecular Probes, Eugene, Oreg.) and observed under the microscope using epifluorescence illumination for the presence of abnormal aster and microtubule bundle formations.
# [4] = test system: purified bovine brain tubulin; assay: Tubulin polymerization (optical density at 350 nm); format: biochemical; set-up: key to Purified tubulin polymerization by 10 μM / Purified tubulin polymerization at 10 μM: −: no effect; +/−: minimal or questionable effect; +: weak effect; ++: strong effect; +++: very strong effect equivalent to discodermolide; conditions: 10 μM compound, 1 mg/mL tubulin; for Purified tubulin polymerization, temperature at which polymerization commences: temperature ramp 4 to 35° C.; for Purified tubulin polymerization at 10 μM: Table 12
# Protocol: (§3) Compounds were tested at 10 μM with 1 mg/mL tubulin. The temperature was varied during the course of the experiment as follows: the experiment was begun with an initial temperature of 4° C. and held for 1 minute; the temperature was then increased to 35° C. at a rate of 1° C./minute, held at 35° C. for 1 minute, decreased to 4° C. at a rate of 2° C/minute, and finally held at 4° C. for 14 minutes. The curves shown are for compounds: discodermolide (I); 2-desmethyldiscodermolide (II); 19-desaminocarbonyldiscodermolide (III); 2-epidiscodermolide (IV); and 3-deoxy-2A-discodermolide (VI).
# as §3, with “C./minute,” for “C/minute,”, “for” for “for compounds:”, “8,21,23-hexahydrodiscodermolide (XII)” for “2-desmethyldiscodermolide (II); 19-desaminocarbonyldiscodermolide (III); 2-epidiscodermolide (IV);”, “7-deoxy-8,21,23-hexahydrodiscodermolide (XIII).” for “3-deoxy-2A-discodermolide (VI).”
# Polymerization of purified bovine brain tubulin (Cytoskeleton Inc., Denver, Colo.) was followed by changes in the optical density of tubulin solutions at 350 nm in a Hitachi U-3010 spectrophotometer equipped with a SPR-10 electronic thermostatted cell holder. Stock solutions of tubulin were diluted on ice in G-PEM buffer (1 mM GTP, 80 mM PIPES, 1 mM EGTA, 0.5 mM magnesium chloride; pH 6.8) to a final concentration of 1 mg/mL. The instrument was zeroed on this solution at 4° C. Discodermolide, and its analogs, were then added to the tubulin solution to a final concentration of 10 μM, quickly mixed, and the absorbance monitored over a period of 61 minutes. Within this time the temperature of the thermoelectric cell holder was held at 4° C. for 1 minute, increased to 35° C. at a rate of 1° C./minute, reduced back to 4° C. at a rate of 2° C./minute, and held at 4° C. for an additional 14 minutes.
# A549 human lung cells = assay: Cell cycle progression by flow cytometry; format: cell-based
# Protocol: Cell cycle studies were initiated in order to pinpoint a specific phase within the cell cycle in which discodermolide analogs were exerting their antiproliferative effect. A549 human lung cells were used as cell cycle targets to compare the effects of discodermolide and discodermolide analogs on perturbation of the cell cycle. Cell cycle analyses were performed as follows: A549 cells were incubated at 37° C. in 5% CO2 in air in the presence or absence of varying concentrations of discodermolide or discodermolide analogs for 24 hr. Cells were harvested, fixed in ethanol, washed, and stained with 0.02 mg/mL of propidium iodide (P.I.) together with 0.1 mg/mL of RNAse A. Stained preparations were analyzed on a Coulter EPICS ELITE flow cytometer with 488 nm excitation. Fluorescence measurements and resulting DNA histograms were collected from at least 10,000 P.I. stained cells at an emission wavelength of 690 nm. Raw histogram data was further analyzed using a cell cycle analysis program (Multicycle, Phoenix Flow Systems).
# [5] = Mus musculus, P388, 48-h exposure
# [6] = Homo sapiens, A549, 72 hours exposure
Molecule,IC50 P388 cells ([1]; 48-h exposure),pIC50 ([1]; 48-h exposure),IC50 A549 cells ([2]; 72 hours exposure),pIC50 ([2]; 72 hours exposure),Microtubule bundling in A549 cells ([3]; Table 11),"Purified tubulin polymerization, temperature at which polymerization commences [4]",Microtubule bundling in A549 cells ([3]; Table 12),Purified tubulin polymerization at 10 μM ([4]; subjective rating),"IC50 [1, 5]","pIC50 [1, 5]","IC50 [2, 6]","pIC50 [2, 6]","Purified tubulin polymerization by 10 μM ([4]; subjective rating, Table 11)",Microtubule bundling observation ([3]; 10 nM through 1000 nM),Cell cycle effects (A549 human lung cells; 10 nM),"Cell cycle effects (100 nM) (A549 human lung cells; 100 nM, 24 hr, A549)",Cell cycle effects (A549 human lung cells; 1000 nM)
Methyldiscodermolate [Methyldiscodermolate (V)],0.04 µg/mL,7.18,0.045 µg/mL,7.13,+,(12° C.),,,,,,,,,,,
"C=CC=CC(C)C(OC(N)=O)C(C)C(O)C(C)CC(C)=CC(C)C(OC(C)=O)C(C)C=CC(O)CC1OC(=O)C(C)=CC1C (stereo not drawn) [3-Deoxy-2Δ-discodermolide-11-acetate (X), 3-deoxy-2Δ-discodermolide-11-acetate]",0.32 µg/mL,6.28,1.93 µg/mL,5.50,,,−,−,,,,,,,,,
"C=CC=CC(C)C(OC(N)=O)C(C)C(OC(C)=O)C(C)CC(C)=CC(C)C(OC(C)=O)C(C)C=CC(O)CC1OC(=O)C(C)=CC1C (stereo not drawn) [3-deoxy-2Δ-discodermolide-11,17-diacetate]",>5 µg/mL,< 5.12,>5 µg/mL,< 5.12,,,−,−,,,,,,,,,
"C=CC=CC(C)C(OC(N)=O)C(C)C(O)C(C)CC(C)=CC(C)C(O)C(C)C=CC(O)CC1OC(=O)C(C)=CC1C (stereo not drawn) [3-Deoxy-2Δ-discodermolide (VI), 3-deoxy-2Δ-discodermolide]",0.02 µg/mL,7.47,0.0125 µg/mL,7.66,,21 °C,+++,+,,,,,,,,,
"C=CC=CC(C)C(OC(N)=O)C(C)C(OC(C)=O)C(C)CC(C)=CC(C)C(OC(C)=O)C(C)C=CC(CC1OC(=O)C(C)=CC1C)OC(C)=O (stereo not drawn) [3-deoxy-2Δ-discodermolide-7,11,17-triacetate]",4.96 µg/mL,5.15,>5 µg/mL,< 5.15,,,−,−,,,,,,,,,
C=CC=CC(C)C(OC(N)=O)C(C)C(OC(C)=O)C(C)CC(C)=CC(C)C(O)C(C)C=CC(O)CC1OC(=O)C(C)=CC1C (stereo not drawn) [3-deoxy-2Δ-discodermolide-17-acetate],>5 µg/mL,< 5.09,>5 µg/mL,< 5.09,,,−,−,,,,,,,,,
"C=C/C=C\[C@H](C)[C@H](OC(N)=O)[C@@H](C)[C@H](O)[C@@H](C)C/C(C)=C\[C@H](C)[C@@H](O)[C@@H](C)/C=C\[C@@H](O)C[C@@H]1OC(=O)[C@H](C)[C@@H](O)[C@H]1C [Discodermolide (I), discodermolide]",,,,,+++,4 °C,,,0.021 µg/mL,7.46,0.008 µg/mL,7.87,+++,,,,
"CCCCC(C)C(OC(N)=O)C(C)C(OC(C)=O)C(C)CC(C)=CC(C)C(OC(C)=O)C(C)CCCCC1OC(=O)C(C)C(OC(C)=O)C1C (stereo not drawn) [7-deoxy-8,21,23-hexahydrodiscodermolide-3,11,17-triacetate]",>5 µg/mL,< 5.12,,,,,−,,,,,,,no bundling seen,No cell cycle effects were noted,No cell cycle effects were noted,No cell cycle effects were noted
